# Measured values: paper PMC10301432, “Antiplasmodial, Trypanocidal, and Genotoxicity In Vitro Assessment of New Hybrid α,α-Difluorophenylacetamide-statin Derivatives” (Pharmaceuticals, 2023)
# “Also recorded” adds a separate entry of the source. Read-outs that look alike come from different tables or passages of the source.
# Tests used:
# [1] = test system: Salmonella enterica serovar Typhimurium TA97; experiment: Salmonella/microsome assay, TA97
# Method: Salmonella enterica serovar Typhimurium (S. typhimurium) strains TA97, TA98, TA100, TA104 and TA102 from the authors’ stock were used as described in the mutagenicity assay.
# To determine the cytotoxic effects, after 30 min pre-incubation, the assay mixtures were diluted in 0.9% NaCl (w/v) to obtain a suspension containing 2 × 10^2 cells/mL. […] The plates were then incubated at 37 °C for 24 h and the colonies counted. All the experiments were conducted in triplicate and were repeated at least twice. Statistical differences between the groups were analyzed by a two-way ANOVA (p < 0.05) and Tukey’s post hoc test.
# in vitro [2] = assay type: cell-based; settings: human
# Method: Human hepatocellular carcinoma (HepG2) and Chinese Hamster Ovary (CHO-K1) cells obtained from the American Type Culture Collection (Manassas, VA, USA) were cultured in Eagle’s medium (MEM, Gibco®, Waltham, MA, USA) containing 10% fetal bovine serum (FBS) plus 100 µg/mL streptomycin and 100 µg/mL penicillin at 37 °C in a 5% CO2 atmosphere. Logarithmic-phase cells were used in all the experiments.
# Fresh HepG2 and CHO-K1 cells were seeded at a density of 1 × 10^4/well. […] Briefly, after treatment, the culture medium was replaced by 90 μL fresh culture medium and 10 μL WST-1 reagent and incubated at 37 °C and 5% CO2 for 3 h. The absorbance was then measured at 440 nm according to the kit protocol.
# HepG2 cells = experiment: In vitro micronuclei assay, HepG2; assay type: cell-based, human; settings: HepG2; 3 h of exposure
# Method: (§1) Fresh HepG2 and CHO-K1 cells were seeded at the density of 1 × 10^5 cells/mL into 24-well plates (1 mL/per well). The compounds 13 (a–d) were then added to the medium to final concentrations of 500, 1000 and 2000 µM and incubation continued for 3 h or 24 h. DMSO 10% was used as the negative control, and, BaP (80 µM) for HepG2 and MMC (5 µM) for CHO-K1 were the positive controls. After exposure to the compounds, the cells were incubated for more than 24 h under growth conditions before quantification of the micronuclei and cytotoxicity. The cytogenetic studies were carried out in triplicate as described previously (see [51]). In order to determine the mitotic index and the number of cells with micronuclei, the medium was replaced by a cold methanol-glacial acetic acid (3:1) fixative for 30 min, and the cells then rinsed with distilled water for 2 min and air dried. The fixed cells were stained with 4,6-diamidino-2-phenylindole (DAPI) ([…]) dissolved in McIlvaine buffer (0.1 M citric acid plus 0.2 M Na2HPO4, pH 7.0) for 60 min, washed with McIlvaine buffer for 5 min, briefly rinsed with distilled water and mounted in glycerol. To determine the mitotic index and the number of cells with micronuclei, 1000 cells per well (3000 cells per concentration) were analyzed under a fluorescence microscope. The results for micronuclei were presented as the percentage of cells containing micronuclei in the 3000 cells/concentration group analyzed. Cells that glowed brightly and had homogenous nuclei were considered as having normal phenotypic morphology. Apoptotic nuclei were identified by the condensed chromatin at the periphery of the nuclear membrane or by fragmented nuclear body morphology. Necrotic cells presented chromatin forms with irregularly shaped aggregates, a pyknotic nucleus (shrunken and darkly stained) and cell membrane disruption, with cellular debris spilled into the extracellular milieu. Once again, 3000 cells were counted and the percentage of viable cells was evaluated, discounting apoptotic and necrotic cells. Statistical differences between the groups were analyzed by two-way ANOVA (p < 0.01) and Tukey’s post hoc test.
# CHO-K1 cells = assay type: cell-based, Chinese Hamster
# Method: as §1
# [3] = test system: CHO-K1 and HepG2 cell lineages; assay type: cell-based
# Method: as §1, with “Necrotic cells presented chromatin forms with irregularly shaped aggregates, a pyknotic nucleus (shrunken and darkly stained) and cell membrane disruption, with cellular debris spilled into the extracellular milieu.” left out
# in vitro [4] = assay type: cell-based; settings: mouse
# Method: Primary cultures of cardiac cells (CC) were obtained as reported in [50]. The cultures were sustained in Dulbecco’s modified Eagle’s medium (DMEM) supplemented with 10% horse serum, 5% fetal bovine serum (FBS), 2.5 mM CaCl2, 1 mM L-glutamine, and 2% chicken embryo extract. Cell cultures were maintained at 37 °C in an atmosphere of 5% CO2, and assays were run at least three times in triplicate.
# (§2) Cardiac cell cultures were incubated for 24 h at 37 °C with different concentrations of the compounds (up to 200 µM) diluted in DMEM (without phenol red). Their morphology and spontaneous contractibility were evaluated by light microscopy and then the cellular viability was determined by the PrestoBlue® assay. For this colorimetric bioassay, PrestoBlue® (Invitrogen, Waltham, MA, USA) was added to each well (using a 10:1 medium/dye), the plate was further incubated for 24 h followed by optical density (OD) measurement performed at 570 and 600 nm, as recommended by the manufacturer.
# [5] = test system: Salmonella enterica serovar Typhimurium TA102
# in vitro [6] = assay type: cell-based; settings: mouse; remark: listed apart in the source
# Method: as §2
# [7] = test system: S. typhimurium TA97, TA98, TA100, TA102 and TA104 strains; experiment: Salmonella/microsome assay, overall outcome; settings: all strains, −S9 and +S9; summarized outcome
# Method: The mutagenicity reverse mutation test was carried out to investigate the potential of 13 (a–d) to induce genetic mutation in S. typhimurium TA97, TA98, TA100, TA102 and TA104 strains. The test was carried out according to the pre-incubation method, both in the absence and presence of a metabolic activation system (4% S9 mix, Aroclor-pre-induced, from Moltox Inc., Boone, NC, USA). DMSO 10% served as the negative control while known mutagens were used as the positive control substances. […] A dose-finding test was carried out with and without the metabolic activation system (S9 mix) for each tester strain.
# For the assays without metabolic activation, 0.5 mL of 0.1 mol/L sodium-phosphate buffer (pH 7.4) was added, and for the assays in the presence of metabolic activation, 0.5 mL S9 mix was mixed with 0.1 mL culture medium (2 × 10^8 cells/mL) plus 0.1 mL of each compound solutions. The mixtures were incubated in a shaker at 37 °C (pre-incubation). After 30 min pre-incubation under light protection, the mixture was added to and mixed with 2 mL top agar containing 0.05 mmol/L L-histidine and D-biotin for the S. typhimurium strains. Each of these was then spread on a minimum glucose agar plate. After the top agar solidified, the plates were incubated at 37 °C for 60–72 h. Each tester strain was assayed in triplicate, and the number of revertant colonies was counted for each tester strain and treatment group [58].
# [8] = test system: P. falciparum parasites (W2 clone) chloroquine-resistant; experiment: Antiplasmodial activity, anti-HRPII assay; assay type: cell-based, Plasmodium falciparum
# Source text: P. falciparum W2 clone was maintained in continuous culture as previously described. […] Prior to testing, the ring-stage parasites were synchronized using sorbitol.
# The test quantification was read at 450 nm on a spectrophotometer (SpectraMax340PC384, Molecular Devices Sunnyvale, CA, USA), and the drug activity was expressed as the half-maximal inhibitory concentration (EC50) compared to the drug-free controls using the curve-fitting software Origin 8.0 (OriginLab Corporation, Northampton, MA, USA).
smiles,measurement,setting,value
"CC(=O)Nc1ccccc1C(F)(F)C(=O)NCC[C@@H]1C[C@H](CC(=O)OC(C)(C)C)OC(C)(C)O1 [Compound 13a, tert-Butyl 2-((4R,6R)-6-(2-(2-(2-acetamidophenyl)-2,2-difluoroacetamido)ethyl)-2,2-dimethyl-1,3-dioxan-4-yl)acetate]",revertant His+ colonies TA97,"[1]; +S9, 3 µM",214 ± 21
same,revertant His+ colonies TA97,"[1]; +S9, 15 µM",217 ± 9
same,revertant His+ colonies TA97,"[1]; +S9, 30 µM",235 ± 23
same,revertant His+ colonies TA97,"[1]; +S9, 150 µM",237 ± 26
same,revertant His+ colonies TA97,"[1]; +S9, 300 µM",237 ± 4
same,revertant His+ colonies TA97,"[1]; +S9, 1500 µM",290 ± 28
same,revertant His+ colonies TA97,"[1]; −S9, 3 µM",78 ± 6
same,revertant His+ colonies TA97,"[1]; −S9, 15 µM",82 ± 8
same,revertant His+ colonies TA97,"[1]; −S9, 30 µM",79 ± 8
same,revertant His+ colonies TA97,"[1]; −S9, 150 µM",69 ± 10
same,revertant His+ colonies TA97,"[1]; −S9, 300 µM",80 ± 11
same,revertant His+ colonies TA97,"[1]; −S9, 1500 µM",90 ± 9
same,CC50 at 24 h,in vitro [2],> 1000 µM
same,cytotoxicity (survival rate) in micronuclei assay,HepG2 cells,significant cytotoxic effects upon 1000 µM
same,micronuclei formation (genotoxicity),HepG2 cells,did not induce micronuclei formation; also recorded: non-genotoxic
same,micronuclei formation (genotoxicity),CHO-K1 cells,genotoxic
same,Mammalian Cell Genotoxicity,[3],Yes
same,CC50 at 24 h,in vitro [4],> 500 µM
same,revertant His+ colonies TA102,"[5]; +S9, 3 µM",384 ± 32
same,revertant His+ colonies TA102,"[5]; +S9, 15 µM",399 ± 32
same,revertant His+ colonies TA102,"[5]; +S9, 30 µM",407 ± 21
same,revertant His+ colonies TA102,"[5]; +S9, 150 µM",411 ± 46
same,revertant His+ colonies TA102,"[5]; +S9, 300 µM",448 ± 52
same,revertant His+ colonies TA102,"[5]; +S9, 1500 µM",501 ± 20
same,revertant His+ colonies TA102,"[5]; −S9, 3 µM",458 ± 19
same,revertant His+ colonies TA102,"[5]; −S9, 15 µM",435 ± 22
same,revertant His+ colonies TA102,"[5]; −S9, 30 µM",433 ± 7
same,revertant His+ colonies TA102,"[5]; −S9, 150 µM",380 ± 12
same,revertant His+ colonies TA102,"[5]; −S9, 300 µM",345 ± 48
same,revertant His+ colonies TA102,"[5]; −S9, 1500 µM",Cytotoxic
same,CC50 at 96 h,in vitro [6],112 ± 28.3 µM
same,Bacterial Mutagenicity,[7],Yes
same,SI,[8]; LC50 (HepG2)/EC50 (P. falciparum),Inactive
same,EC50,"[8]; Plasmodium falciparum, W2, 24 h, P. falciparum W2 clone, 24 h at 37 °C, read-out: EC50",> 62 µM
same,Antiplasmodial Activity,[8]; summarized outcome,No
